# Columns and labels:
# Type in all cases: functional, cell-based
# [1] = tested on: PANC-1; experiment: Antiproliferative activity against human PANC-1 cells assessed as reduction in cell viability incubated for 24 to 72 hrs by MTT assay
# [2] = tested on: CAPAN-1; experiment: Antiproliferative activity against human CAPAN-1 cells assessed as reduction in cell viability incubated for 24 to 72 hrs by MTT assay
# [3] = tested on: L1210; experiment: Antiproliferative activity against mouse L1210 cells assessed as reduction in cell viability incubated for 48 hrs by MTT assay; conditions: L1210, 48 h
# [4] = tested on: HL-60; experiment: Antiproliferative activity against human HL-60 cells assessed as reduction in cell viability incubated for 48 hrs by MTT assay; conditions: HL-60, 48 h
# [5] = tested on: A549; experiment: Antitumor activity against human A549 cells assessed as reduction in cell viability incubated for 72 hrs by MTT assay; conditions: A549, 72 h
# [6] = tested on: HepG2; experiment: Antitumor activity against human HepG2 cells assessed as reduction in cell viability incubated for 72 hrs by MTT assay; conditions: HepG2, 72 h
# [7] = tested on: MCF7; experiment: Antitumor activity against human MCF7 cells assessed as reduction in cell viability incubated for 72 hrs by MTT assay; conditions: MCF7, 72 h
# [8] = tested on: PC-3; experiment: Antitumor activity against human PC-3 cells assessed as reduction in cell viability incubated for 72 hrs by MTT assay; conditions: PC-3, 72 h
# [9] = tested on: HeLa; experiment: Antitumor activity against human HeLa cells assessed as reduction in cell viability incubated for 72 hrs by MTT assay
# [10] = tested on: HL-60; experiment: Anticancer activity against human HL-60 cells assessed as reduction in cell viability incubated for 24 hrs by MTT assay; conditions: HL-60, 24 h
# [11] = tested on: HL-60; experiment: Anticancer activity against human HL-60 cells assessed as reduction in cell viability incubated for 48 hrs by MTT assay; conditions: HL-60, 48 h
# [12] = tested on: A549; experiment: Anticancer activity against human A549 cells assessed as reduction in cell viability by MTT assay
# [13] = tested on: SW-620; experiment: Antiproliferative activity against human SW620 cells assessed as inhibition of cell proliferation by CCK-8 assay
# [14] = tested on: MGC-803; experiment: Antiproliferative activity against human MGC-803 cells assessed as inhibition of cell proliferation by CCK-8 assay
# [15] = tested on: PC-3; experiment: Antiproliferative activity against human PC-3 cells assessed as inhibition of cell proliferation by CCK-8 assay
# [16] = tested on: NCI-H460; experiment: Antiproliferative activity against human NCI-H460 cells assessed as inhibition of cell proliferation by CCK-8 assay
# [17] = tested on: MCF7; experiment: Antiproliferative activity against human MCF7 cells assessed as inhibition of cell proliferation by CCK-8 assay
# [18] = tested on: HepG2; experiment: Antiproliferative activity against human HepG2 cells assessed as inhibition of cell proliferation by CCK-8 assay
# [19] = tested on: SW48; experiment: Anticancer activity against human SW48 cells assessed as reduction in cell viability by MTT assay
# [20] = tested on: A2780; experiment: Anticancer activity against human cisplatin resistant A2780 cells assessed as reduction in cell viability by MTT assay
compound,measurement,setting,value
CN1CCN(c2cc3c(cc2F)c(=O)c(/C=C2\CN(C4CC4)c4cc(N5CCNCC5)c(F)cc4C2=O)cn3C2CC2)CC1,IC50,[1],3100 nM
same,IC50,[2],1600 nM
O=c1c(-c2nn3c(-c4cn(C5CC5)c5cc(N6CCNCC6)c(F)cc5c4=O)nnc3s2)cn(C2CC2)c2cc(N3CCNCC3)c(F)cc12,IC50,[3],3600 nM
same,IC50,[4],540 nM
C[C@H]1COc2c(N3CCN(C)CC3)c(F)cc3c(=O)c(C(=O)NCc4cn(CCCCCCC(=O)NO)nn4)cn1c23,IC50,[5],300 nM
same,IC50,[6],300 nM
same,IC50,[7],300 nM
same,IC50,[8],300 nM
same,IC50,[9],300 nM
COc1ccc2cc3[n+](cc2c1OC(=O)c1cn(C2CC2)c2cc(N4CCNCC4)c(F)cc2c1=O)CCc1cc2c(cc1-3)OCO2,IC50,[10],19300 nM
same,IC50,[11],15700 nM
C[C@H]1COc2c(Nn3c(=O)[nH][nH]c3=O)c(F)cc3c(=O)c(C(=O)O)cn1c23,IC50,[12],34500 nM
C[C@H]1COc2c(N3CCN(C)CC3)c(F)cc3c(=O)c(-c4nnc(NC(=O)CCCCCCC(=O)NO)s4)cn1c23,IC50,[13],600 nM
same,IC50,[14],600 nM
same,IC50,[15],600 nM
same,IC50,[16],600 nM
same,IC50,[17],600 nM
same,IC50,[18],600 nM
C[C@H]1COc2c(Nc3ccc(-n4c(=O)[nH][nH]c4=O)cc3)c(F)cc3c(=O)c(C(=O)O)cn1c23,IC50,[19],≤ 43000 nM
same,IC50,[20],≤ 43000 nM

# Source: ChEMBL document CHEMBL5233217, “Modification of 7-piperazinylquinolone antibacterials to promising anticancer lead compounds: Synthesis and in vitro studies” (Eur J Med Chem, 2020)
